Assay results taken from patent US7456203B2, “Muscarinic receptor antagonists” (Theravance, Inc., priority 1999, dated 2008).

Key:
[1] = molecular target: T1, M3 receptor in bladder (Rattus norvegicus, UniProt P08483); assay: Rat bladder in vitro binding assay, receptor block by selective ligand; conditions: bladder membranes
T1 construct: Membranes from rat bladder were prepared; from tissue; host or cells: rat bladder membranes
Experimental: (§1) Bladder was comprised of both M2 and M3 muscannic receptors. The ratio was typically 4:1 M2:M3. […] The following example illustrates the procedure for M3 bladder binding.
Membranes from rat bladder were prepared in a similar fashion to that used to isolate heart membrane above. […] To 50 μl of compound dilution in a 96-well assay plate was added an appropriate amount of rat heart membrane (usually 25 μl of membrane prep in 75 μl of 20 mM HEPES, 100 mM NaCl/10 mM MgCl2 at pH 7.5). The amount of membrane added depended in general on the results of signal optimization, and ranged from 12.5-25. Last, 50 μl of 2.12 nM 3H-N-methylscopolamine radioligand in compound dilution buffer was added. The total volume in each well was 200 μl. […] The filter plate was pre-blocked using 0.3% PEI for at least 15 mins., and then washed twice with 200 μl PBS. The assay plate was incubated for 1 hour at room temperature with gentle shaking. The contents of the assay plate was then transferred to the filter plate, and washed three times using 200 μl PBS. About 40 μl of scint was added to each well, the plate was allowed to sit at room temperature for 18 h, and then counted using a Packard Topcount NXT.

[2] = molecular target: T2, M2 receptor in bladder (Rattus norvegicus, UniProt P10980); assay: as above; conditions: blocking ligand 2 μM; bladder membranes
T2 construct: Membranes from rat bladder were prepared; from tissue; host or cells: rat bladder membranes
T2 sequence (P10980 1-466): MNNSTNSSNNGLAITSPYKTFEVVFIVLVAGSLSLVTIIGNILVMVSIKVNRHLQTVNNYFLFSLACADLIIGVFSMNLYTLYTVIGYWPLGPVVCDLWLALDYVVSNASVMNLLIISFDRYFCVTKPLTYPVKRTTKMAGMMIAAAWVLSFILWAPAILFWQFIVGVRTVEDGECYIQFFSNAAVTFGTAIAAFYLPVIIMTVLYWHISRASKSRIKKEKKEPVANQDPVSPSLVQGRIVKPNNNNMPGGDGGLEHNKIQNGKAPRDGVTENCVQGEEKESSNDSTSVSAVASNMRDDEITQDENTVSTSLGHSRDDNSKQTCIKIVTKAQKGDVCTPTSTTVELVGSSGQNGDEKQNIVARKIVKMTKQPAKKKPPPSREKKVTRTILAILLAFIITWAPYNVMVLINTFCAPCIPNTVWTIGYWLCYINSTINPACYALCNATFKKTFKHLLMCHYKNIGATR
Experimental: as §1
Membranes from rat bladder were prepared in a similar fashion to that used to isolate heart membrane above. […] To 50 μl of compound dilution in a 96-well assay plate was added an appropriate amount of rat heart membrane (usually 25 μl of membrane prep in 75 μl of 20 mM HEPES, 100 mM NaCl/10 mM MgCl2 at pH 7.5). The amount of membrane added depended in general on the results of signal optimization, and ranged from 12.5-25. Last, 50 μl of 2.12 nM 3H-N-methylscopolamine radioligand in compound dilution buffer was added. The total volume in each well was 200 μl. The final concentration of methoctramine was 2 μM. The filter plate was pre-blocked using 0.3% PEI for at least 15 mins., and then washed twice with 200 μl PBS. The assay plate was incubated for 1 hour at room temperature with gentle shaking. The contents of the assay plate was then transferred to the filter plate, and washed three times using 200 μl PBS. About 40 μl of scint was added to each well, the plate was allowed to sit at room temperature for 18 h, and then counted using a Packard Topcount NXT.

[3] = test system: oxotremorine response (intraluminal pressure of the bladder); assay: In vivo bladder assay; parameters: species or system rat; conditions: 0.005-0.01 mg/kg, IV; after oxotremorine 0.3 mg/kg SC; anesthetized male Sprague-Dawley rats
Experimental: Male Sprague-Dawley rats weighing 250-300 g were anesthetized with urethane (1.3 g/kg, i.p.), inactin (25 mg/kg, i.p.), and xylazine (4 mg, i.p.). The jugular (or femoral) vein was isolated and ligated and a small incision was made in the vein distal to the ligation. […]
For data analysis, the oxotremorine response (zero inhibition) was determined by measuring the mean pressure 1 minute prior to the antagonist injection. Then, to assess antagonist inhibition, mean pressure was measured beginning at 1 minute and ending 2 minutes after antagonist administration. […] The percent inhibition by the antagonist can be determined by the ratio of the decrease from the zero to 100% values. • The formula is: oxotremorine mean−treatment mean*100 oxotremorine mean−atropine mean.

T1 sequence (P08483 whole entry): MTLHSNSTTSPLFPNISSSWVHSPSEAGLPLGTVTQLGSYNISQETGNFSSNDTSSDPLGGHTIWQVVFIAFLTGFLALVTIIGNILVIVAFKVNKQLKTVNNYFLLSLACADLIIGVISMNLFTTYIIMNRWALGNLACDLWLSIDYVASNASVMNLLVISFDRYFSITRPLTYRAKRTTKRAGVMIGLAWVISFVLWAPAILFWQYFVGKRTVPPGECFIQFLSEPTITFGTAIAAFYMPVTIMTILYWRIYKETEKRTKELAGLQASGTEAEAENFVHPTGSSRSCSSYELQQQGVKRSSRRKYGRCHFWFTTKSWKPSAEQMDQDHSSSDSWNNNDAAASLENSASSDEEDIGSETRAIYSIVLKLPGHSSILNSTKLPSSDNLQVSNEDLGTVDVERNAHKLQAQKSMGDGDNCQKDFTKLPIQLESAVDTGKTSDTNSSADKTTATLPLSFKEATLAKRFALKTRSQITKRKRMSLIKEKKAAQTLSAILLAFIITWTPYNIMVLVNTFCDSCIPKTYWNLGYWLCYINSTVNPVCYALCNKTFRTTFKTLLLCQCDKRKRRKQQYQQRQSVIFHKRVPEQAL

| block of M3 receptor ([1]; 2 μM Darifenacin) | SMILES | block of the M3 receptor in bladder ([1]; final concentration of methoctramine 2 μM) | block of the M2 receptor in bladder [2] [%] | decrease in intraluminal pressure [3] |
| --- | --- | --- | --- | --- |
| – | COc1ccccc1CNCCCCCCNCCCCCCCCNCCCCCCNCc1ccccc1OC [methoctramine, Methoctramine] | less than 40% | > 99 | – |
| minimal | NC(=O)C(c1ccccc1)(c1ccccc1)[C@@H]1CCN(CCc2ccc3c(c2)CCO3)C1 [Darifenacin] | – | > 99 | – |
| – | CN1[C@@H]2CC[C@H]1C[C@@H](OC(=O)C(CO)c1ccccc1)C2 (some centres unmarked) [atropine] | – | – | 30-70% |
